From ChEMBL document CHEMBL1136812, “Structure-activity relationships of dimethindene derivatives as new M2-selective muscarinic receptor antagonists” (J Med Chem, 2003)
pKi: −log10 of the molar value.

Columns and labels:
Type in all cases: cell-based
[1] = target: T1, Muscarinic acetylcholine receptor M5 (Homo sapiens, UniProt P08912); experiment: Binding affinity towards cloned human muscarinic acetylcholine receptor M5 stably expressed in CHO-K1 cells using [3H]N-methylscopolamine
T1 sequence (P08912 whole entry): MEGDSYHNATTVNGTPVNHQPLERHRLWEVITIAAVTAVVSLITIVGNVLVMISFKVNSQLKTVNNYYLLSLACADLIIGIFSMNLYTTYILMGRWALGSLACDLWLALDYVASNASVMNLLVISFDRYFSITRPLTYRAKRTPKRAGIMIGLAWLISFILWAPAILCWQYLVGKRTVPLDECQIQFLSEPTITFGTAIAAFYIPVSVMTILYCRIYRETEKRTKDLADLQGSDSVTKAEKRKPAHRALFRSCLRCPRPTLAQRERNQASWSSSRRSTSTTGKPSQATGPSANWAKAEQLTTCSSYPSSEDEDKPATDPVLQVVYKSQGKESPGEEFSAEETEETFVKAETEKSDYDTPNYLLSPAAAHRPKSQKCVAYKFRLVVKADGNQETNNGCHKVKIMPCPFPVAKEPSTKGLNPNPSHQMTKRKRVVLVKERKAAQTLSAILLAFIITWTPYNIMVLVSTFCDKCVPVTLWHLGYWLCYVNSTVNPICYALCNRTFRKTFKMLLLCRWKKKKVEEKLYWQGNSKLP

[2] = target: T2, Muscarinic acetylcholine receptor M2 (Homo sapiens, UniProt P08172); experiment: Binding affinity towards cloned human muscarinic acetylcholine receptor M2 stably expressed in CHO-K1 cells using [3H]N-methylscopolamine
T2 sequence (P08172 whole entry): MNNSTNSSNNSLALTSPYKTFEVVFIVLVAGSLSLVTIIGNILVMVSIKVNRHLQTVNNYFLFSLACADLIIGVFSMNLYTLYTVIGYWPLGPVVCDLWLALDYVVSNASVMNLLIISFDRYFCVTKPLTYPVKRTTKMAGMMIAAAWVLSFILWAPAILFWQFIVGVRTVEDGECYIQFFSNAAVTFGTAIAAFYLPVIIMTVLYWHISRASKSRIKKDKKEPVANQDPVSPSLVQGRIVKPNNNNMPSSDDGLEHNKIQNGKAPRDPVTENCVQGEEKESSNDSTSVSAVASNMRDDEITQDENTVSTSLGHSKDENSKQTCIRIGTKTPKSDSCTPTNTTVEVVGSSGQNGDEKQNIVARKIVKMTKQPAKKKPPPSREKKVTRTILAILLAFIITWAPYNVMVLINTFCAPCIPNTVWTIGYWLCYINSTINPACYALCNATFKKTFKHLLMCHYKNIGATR

[3] = target: Muscarinic acetylcholine receptor M3 (Homo sapiens, UniProt P20309); experiment: Binding affinity towards cloned human muscarinic acetylcholine receptor M3 stably expressed in CHO-K1 cells using [3H]N-methylscopolamine
[4] = target: T3, Muscarinic acetylcholine receptor M1 (Homo sapiens, UniProt P11229); experiment: Binding affinity towards cloned human muscarinic acetylcholine receptor M1 stably expressed in CHO-K1 cells using [3H]N-methylscopolamine
T3 sequence (P11229 whole entry): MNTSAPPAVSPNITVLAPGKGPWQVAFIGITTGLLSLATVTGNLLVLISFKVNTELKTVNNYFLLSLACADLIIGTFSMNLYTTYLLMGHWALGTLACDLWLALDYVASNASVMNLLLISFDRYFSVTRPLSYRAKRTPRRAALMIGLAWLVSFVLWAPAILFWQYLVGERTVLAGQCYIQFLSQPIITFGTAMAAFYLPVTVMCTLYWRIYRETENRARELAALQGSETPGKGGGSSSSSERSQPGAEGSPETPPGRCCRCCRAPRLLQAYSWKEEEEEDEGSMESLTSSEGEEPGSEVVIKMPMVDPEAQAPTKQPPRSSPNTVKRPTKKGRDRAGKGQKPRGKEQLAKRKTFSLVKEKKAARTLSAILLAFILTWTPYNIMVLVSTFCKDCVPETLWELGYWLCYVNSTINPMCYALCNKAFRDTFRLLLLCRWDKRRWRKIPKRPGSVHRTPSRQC

[5] = target: T4, Muscarinic acetylcholine receptor M4 (Homo sapiens, UniProt P08173); experiment: Binding affinity towards cloned human muscarinic acetylcholine receptor M4 stably expressed in CHO-K1 cells using [3H]N-methylscopolamine
T4 sequence (P08173 whole entry): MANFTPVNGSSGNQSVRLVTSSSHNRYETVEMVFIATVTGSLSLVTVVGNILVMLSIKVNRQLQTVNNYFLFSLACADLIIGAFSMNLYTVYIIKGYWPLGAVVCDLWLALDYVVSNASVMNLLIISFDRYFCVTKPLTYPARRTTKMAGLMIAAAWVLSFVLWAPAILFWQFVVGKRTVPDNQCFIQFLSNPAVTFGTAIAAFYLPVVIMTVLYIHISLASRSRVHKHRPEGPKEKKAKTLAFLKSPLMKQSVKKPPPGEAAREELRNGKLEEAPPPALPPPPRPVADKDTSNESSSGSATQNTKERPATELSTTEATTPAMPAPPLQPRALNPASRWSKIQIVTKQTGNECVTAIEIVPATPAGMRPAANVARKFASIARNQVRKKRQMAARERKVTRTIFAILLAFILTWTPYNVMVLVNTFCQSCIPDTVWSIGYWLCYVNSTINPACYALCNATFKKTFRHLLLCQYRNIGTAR

Chain of Muscarinic acetylcholine receptor M3 (P20309 whole entry): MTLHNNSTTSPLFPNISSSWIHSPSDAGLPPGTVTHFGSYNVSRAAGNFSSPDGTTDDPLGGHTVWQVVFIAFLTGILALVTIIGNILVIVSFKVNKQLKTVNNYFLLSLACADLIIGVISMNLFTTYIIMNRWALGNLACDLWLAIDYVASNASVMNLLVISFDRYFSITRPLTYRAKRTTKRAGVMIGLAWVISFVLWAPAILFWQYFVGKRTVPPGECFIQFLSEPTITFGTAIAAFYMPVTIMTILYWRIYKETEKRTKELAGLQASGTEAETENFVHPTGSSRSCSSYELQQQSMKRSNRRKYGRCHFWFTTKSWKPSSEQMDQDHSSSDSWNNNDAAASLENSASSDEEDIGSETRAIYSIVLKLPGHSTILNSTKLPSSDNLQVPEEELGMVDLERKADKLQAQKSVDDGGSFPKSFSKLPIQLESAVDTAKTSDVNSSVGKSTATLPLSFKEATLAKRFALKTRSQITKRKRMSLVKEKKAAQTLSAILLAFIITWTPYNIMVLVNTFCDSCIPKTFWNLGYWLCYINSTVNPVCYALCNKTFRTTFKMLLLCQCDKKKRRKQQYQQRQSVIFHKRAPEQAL

Row | SMILES | pKi [1] | pKi [2] | pKi [3] | pKi [4] | pKi [5]
1 | COc1ccc2c(c1)CC(CCN(C)C)=C2C(C)c1ccccn1 (stereo not given) | 5.22 | 5.97 | 5.93 | 5.81 | 5.38
2 | CN(C)CCNC(=O)C1=C(Cc2ccncc2)c2ccccc2C1 | 4.38 | 4.03 | 3.87 | 4.27 | 4.06
3 | CCN(CC)CCC1=C(C(C)c2ccccn2)c2ccccc2C1 (stereo not given) | 5.68 | 7.35 | 6.02 | 6.35 | 6.34
4 | CC(C1=C(CCN(C)C)Cc2ccc(Cl)cc21)c1ccccn1 (stereo not given) | 6.04 | 6.44 | 6.30 | 6.46 | 6.13
5 | CN(C)CCOC(=O)C1=C(Cc2cccnc2)c2ccccc2C1 | 4.95 | 5.22 | 5.09 | 5.45 | 4.88
6 | CN(C)CCC1=C(Cc2ccncc2)c2ccccc2C1 | 4.99 | 5.17 | 4.93 | 5.37 | 5.08
7 | CCCC(C1=C(CCN(C)C)Cc2ccccc21)c1ccccn1 (stereo not given) | 6.52 | 6.17 | 6.20 | 6.61 | 6.21
8 | CC(C1=C(CCN(C)C)Cc2ccccc21)c1ccccc1 (stereo not given) | 6.51 | 6.59 | 6.54 | 6.80 | 6.43
9 | CC(C1=C(CN(C)C(C)C)Cc2ccccc21)c1ccccn1 (stereo not given) | 5.95 | 7.29 | 6.13 | 6.64 | 6.22
10 | CN(C)CCOC(=O)C1=C(Cc2ccccn2)c2ccccc2C1 | 4.76 | 5.31 | 5.05 | 5.27 | 4.83
11 | COc1ccc2c(c1)C(C(C)c1ccccn1)=C(CCN(C)C)C2 (stereo not given) | 5.05 | 5.99 | 5.50 | 5.43 | 5.07
12 | CN(C)CCNC(=O)C1=C(Cc2ccccn2)c2ccccc2C1 | 4.34 | 4.83 | 4.62 | 4.79 | 4.57
13 | Cc1ccc2c(c1)C(C(C)c1ccccn1)=C(CCN(C)C)C2 (stereo not given) | 5.23 | 5.71 | 5.60 | 5.79 | 5.49
14 | CC(C1=C(CCN(C)C)Cc2ccc(F)cc21)c1ccccn1 (stereo not given) | 5.98 | 6.95 | 6.58 | 6.48 | 6.19
15 | CCC(C1=C(CCN(C)C)Cc2cc(Cl)ccc21)c1ccccn1 (stereo not given) | 6.11 | 6.97 | 6.55 | 6.65 | 6.08
16 | CCC(C1=C(CCN(C)C)Cc2ccccc21)c1ccccn1 (stereo not given) | 6.17 | 7.01 | 6.51 | 6.62 | 6.18
17 | Cc1ccc2c(c1)CC(CCN(C)C)=C2C(C)c1ccccn1 (stereo not given) | 5.84 | 6.23 | 6.30 | 6.25 | 5.85
18 | CC(C1=C(CCN2CCCCC2)Cc2ccccc21)c1ccccn1 (stereo not given) | 5.63 | 6.07 | 5.75 | 5.72 | 5.72
19 | CC(C1=C(CCN2CCCC2)Cc2ccccc21)c1ccccn1 (stereo not given) | 5.70 | 6.40 | 5.72 | 5.98 | 5.91
20 | CN(C)CCC1=C(Cc2cccnc2)c2ccccc2C1 | 5.10 | 5.27 | 5.09 | 5.43 | 5.13
21 | CN(C)CCNC(=O)C1=C(Cc2cccnc2)c2ccccc2C1 | 4.18 | 4.40 | 4.31 | 4.31 | 4.33
22 | CC(C1=C(CCN2CCOCC2)Cc2ccccc21)c1ccccn1 (stereo not given) | 5.57 | 5.84 | 5.56 | 5.36 | 5.38
23 | CN(C)CCC1=C(C(C)(C)c2ccccn2)c2ccccc2C1 | 6.43 | 7.81 | 7.59 | 7.28 | 7.09
